Experimental data from the NIST ThermoML archive (doi:10.1016/j.tca.2010.03.027).
± gives the expanded uncertainty stated by the source.

Legend:
[1] = Crystal; for Normal melting temperature: DTA
[2] = xn = mol fraction of the nth substance listed; details: 293 K, 101 kPa, Crystal, X-ray diffraction

| mass density ([1]; 293 K, 101.3 kPa, X-ray diffraction) | Normal melting temperature [1] | mass density ([2]; x1 = 0.15) | mass density ([2]; x1 = 0.3) | mass density ([2]; x1 = 0.45) | mass density ([2]; x1 = 0.6) | mass density ([2]; x1 = 0.75) | mass density ([2]; x1 = 0.9) | mass density ([2]; x1 = 1) | SMILES |
| --- | --- | --- | --- | --- | --- | --- | --- | --- | --- |
| 5060 ± 2 kg/m3 | 738 ± 1 °C |  |  |  |  |  |  |  | [Br-].[Br-].[Ca+2] [calcium bromide] |
|  |  | 3536 ± 2 kg/m3 | 3836 ± 2 kg/m3 | 4112 ± 2 kg/m3 | 4371 ± 2 kg/m3 | 4628 ± 2 kg/m3 | 4861 ± 2 kg/m3 | 5060 ± 2 kg/m3 | [Br-].[Br-].[Ca+2] [calcium bromide] + [Ca+2].[Cl-].[Cl-] |
|  | 770 ± 1 °C |  |  |  |  |  |  |  | [Ca+2].[Cl-].[Cl-] [calcium chloride] |
